In the NIST ThermoML archive (doi:10.1021/je700202h) one finds mass density and viscosity data, which are given here for 2 compounds.

For this series the following is noted: 101.33 kPa, Liquid.

The structures appear in SMILES notation. ± gives the expanded uncertainty stated by the source.

The term mass density denotes mass per unit of volume. One may read the viscosity as the internal friction of a fluid under shear. Take `CCCCCCC` [heptane]: the mass density reads like this: (293.15 K) 682.8 ± 0.7 kg/m3; (298.15 K) 678.6 ± 0.8 kg/m3; (303.15 K) 674.7 ± 0.8 kg/m3; (308.15 K) 670.7 ± 0.9 kg/m3; (313.15 K) 665.6 ± 0.9 kg/m3. Also, the viscosity is given as 0.4142 ± 0.0078 mPa·s (293.15 K); 0.3928 ± 0.0075 mPa·s (298.15 K); 0.3728 ± 0.0072 mPa·s (303.15 K); 0.3541 ± 0.007 mPa·s (308.15 K); 0.3374 ± 0.0067 mPa·s (313.15 K).

For the compound `CCCCCCCCC` [nonane], the mass density reads like this: (293.15 K) 717.9 ± 0.9 kg/m3; (298.15 K) 714 ± 0.9 kg/m3; (303.15 K) 710.8 ± 1 kg/m3; (308.15 K) 706.7 ± 1 kg/m3; (313.15 K) 702.8 ± 1.1 kg/m3. For the same compound, the viscosity reads like this: (293.15 K) 0.7091 ± 0.012 mPa·s; (298.15 K) 0.664 ± 0.012 mPa·s; (303.15 K) 0.6217 ± 0.011 mPa·s; (308.15 K) 0.5849 ± 0.011 mPa·s; (313.15 K) 0.55 ± 0.01 mPa·s.
